Data from US20130317037A1, “METHOD OF ADMINISTRATION AND TREATMENT” (GlaxoSmithKline Intellectual Property Development Limited, priority 2010, published 2013).
pIC50: −log10 of the molar value. Read-outs that look alike come from different tables or passages of the source.

Tests used:
[1] = system: BT-20; assay: Panel A proliferation assay (CellTiter-Glo); HER2 2 copies, KRAS WT, PIK3CA p.P539R; type: cell-based, human; details: for pIC50: Homo sapiens
Procedure: (§1) A total of 15 breast cancer cell lines were used in this study. These cells were cultured in RPMI-1640 and supplemented with 5% or 10% fetal bovine serum, 2 mM GlutaMAX™ and 1 mM sodium pyruvate, or in growth medium recommended by the suppliers [American Type Culture Collection, Manassas, Va., USA; Developmental Therapeutics Program, National Cancer Institute, Bethesda, Md., USA; German Collection of Microorganisms and Cell Cultures (DSMZ), Braunschweig, Germany; European Collection of Cell Cultures (ECACC), Porton Down, UK]. Cells of each line were seeded into a 384-well microtiter plate at two cell densities. Low density ranges were 300-1800 cells/well, and a high density was 600 to 3600 cells/well). The plating density was determined by the rate of proliferation of the cell line in the absence of any inhibitor and varied amongst cell lines. High plating densities were double that of low density. Each cell density was plated in triplicate. In total there were 30 wells to be treated with increasing concentrations of Compound B for each cell line at each density. In addition, there were 24 wells of dimethyl sulfoxide (DMSO)-treated controls at each density. After seeding, the cells were incubated at 37° C. in 5% CO2 for 24 hours. Subsequently, Compound B was added to each cell line with 10 concentrations. The dosing solution of Compound B was first prepared in DMSO at a master stock concentration of 10 mM. 1:3 serial dilutions were then made of the stock solution to give a range of working stock concentrations; 10.00 mM, 3.164 mM, 1.001 mM, 316.9 μM, 100.3 μM, 31.74 μM, 10.04 μM, 3.178 μM, 1.006 μM and 318.3 nM. The working stock concentrations of Compound B were then dispensed into the seeded cancer cell lines using a Biomek FX liquid handler to give final treatment concentrations of 0.1% of the stock concentration. A similar volume of DMSO without Compound B was dispensed into the 24 control wells of each seeding density at a concentration of 0.1%. Also, a zero-time plate prepared with a similar cell seeding was read for each cell line at each seeding density immediately after the addition of the DMSO control. After a 72 h incubation, an equal volume of the CellTiter-Glo (CellTiter-Glo Luminescent Cell Viability Assay, Promega, Madison, Wis.) to that of the cell culture medium was added into each well of the plate. After the contents were mixed to induce cell lysis and stabilization, cell luminescence was recorded using a SpectraMax M5^e (Molecular Devices, Sunnyvale, Calif., USA)
The luminescence of Compound B treated cells was compared relative to the average of the 24 DMSO-treated control wells at each cell density for every concentration of Compound B for all triplicate wells. The percent intensity values were used in model 205 of XLfit in Microsoft Excel to calculate gIC50s for the low and high seeding density (a 4 parameter logistical fit). Specifically, the midpoint of the growth window (the gIC50) falls half way between the number of cells at the time of compound addition (T=0) and the growth of control cells treated with DMSO. The gIC50 value serves as a metric for measuring the inhibition of proliferation in cancer cells. […] Finally, where data quality permits, the Ymin values (defined as the maximum growth inhibition relative to the cell density at Time-zero) were calculated as a measure of cytotoxicity where data were of reasonable quality.

[2] = system: MDA-MB-468; assay: Panel A proliferation assay (CellTiter-Glo); HER2 2 copies, KRAS WT, PIK3CA WT; type: cell-based, human; details: for pIC50: Homo sapiens
Procedure: (§2) A total of 15 breast cancer cell lines were used in this study. […] Cells of each line were seeded into a 384-well microtiter plate at two cell densities. Low density ranges were 300-1800 cells/well, and a high density was 600 to 3600 cells/well). The plating density was determined by the rate of proliferation of the cell line in the absence of any inhibitor and varied amongst cell lines. High plating densities were double that of low density. Each cell density was plated in triplicate. […] In addition, there were 24 wells of dimethyl sulfoxide (DMSO)-treated controls at each density. After seeding, the cells were incubated at 37° C. in 5% CO2 for 24 hours. […] After a 72 h incubation, an equal volume of the CellTiter-Glo (CellTiter-Glo Luminescent Cell Viability Assay, Promega, Madison, Wis.) to that of the cell culture medium was added into each well of the plate. After the contents were mixed to induce cell lysis and stabilization, cell luminescence was recorded using a SpectraMax M5^e (Molecular Devices, Sunnyvale, Calif., USA)
(§3) Specifically, the midpoint of the growth window (the gIC50) falls half way between the number of cells at the time of compound addition (T=0) and the growth of control cells treated with DMSO. The gIC50 value serves as a metric for measuring the inhibition of proliferation in cancer cells. The curves for each seeding density for each cell line were manually inspected for both data quality and appropriateness of curve fitting. Where the starting data were poor the curve and subsequent gIC50s were excluded from further analysis. Cell line seedings were considered of poor quality when the r^2 value of the fitted curve was <0.75. Finally, where data quality permits, the Ymin values (defined as the maximum growth inhibition relative to the cell density at Time-zero) were calculated as a measure of cytotoxicity where data were of reasonable quality.

[3] = system: DU4475; assay: as above; type: cell-based, human; details: for pIC50: Homo sapiens, DU-4475
Procedure: as §2, §3

[4] = system: NCI/ADR-RES; assay: as above; type: cell-based, human; details: for pIC50: Homo sapiens
Procedure: as §2, §3

[5] = system: panel of 15 human breast cell lines; assay: Breast Cancer Cell Line Panel A proliferation assay, panel summary; type: cell-based
Procedure: as §1, with “The dosing solution of Compound B was first prepared in DMSO at a master stock concentration of 10 mM. 1:3 serial dilutions were then made of the stock solution to give a range of working stock concentrations; 10.00 mM, 3.164 mM, 1.001 mM, 316.9 μM, 100.3 μM, 31.74 μM, 10.04 μM, 3.178 μM, 1.006 μM and 318.3 nM. The working stock concentrations of Compound B were then dispensed into the seeded cancer cell lines using a Biomek FX liquid handler to give final treatment concentrations of 0.1% of the stock concentration. A similar volume of DMSO without Compound B was dispensed into the 24 control wells of each seeding density at a concentration of 0.1%.” left out, “After a 72 h incubation, an equal volume of the CellTiter-Glo (CellTiter-Glo Luminescent Cell Viability Assay, Promega, Madison, Wis.) to that of the cell culture medium was added into each well of the plate.” left out
The luminescence of Compound B treated cells was compared relative to the average of the 24 DMSO-treated control wells at each cell density for every concentration of Compound B for all triplicate wells. […] Finally, where data quality permits, the Ymin values (defined as the maximum growth inhibition relative to the cell density at Time-zero) were calculated as a measure of cytotoxicity where data were of reasonable quality.

[6] = system: MDA-MB-231; assay: Panel A proliferation assay (CellTiter-Glo); HER2 2 copies, KRAS p.G13D, PIK3CA WT; type: cell-based, human; details: for pIC50: Homo sapiens
Procedure: as §2, §3

For COc1ncc(-c2ccc3nccc(-c4ccnnc4)c3c2)cc1NS(=O)(=O)c1ccc(F)cc1F [Compound B, 2,4-difluoro-N-{2-(methyloxy)-5-[4-(4-pyridazinyl)-6-quinolinyl]-3-pyridinyl}benzenesulfonamide], the “High Density Y-Min” value ([1]; BT-20, high density, % of cells at T = 0) was 20.7%, the “Low Density Y-Min” value ([1]; BT-20, low density, % of cells at T = 0) was 10.7% and the pIC50 ([1]; BT-20, high seeding density, 72 h, read-out: High Density gIC50) was 8.11. The pIC50 ([1]; BT-20, low seeding density, 72 h, read-out: Low Density gIC50) was 8.20, the pIC50 ([1]; BT-20, mean of low and high density, read-out: Mean gIC50) was 8.15 and the pIC50 ([2]; MDA-MB-468, high seeding density, 72 h, read-out: High Density gIC50) was 7.49. The pIC50 ([2]; MDA-MB-468, low seeding density, 72 h, read-out: Low Density gIC50) was 7.43, the pIC50 ([2]; MDA-MB-468, mean of low and high density, read-out: Mean gIC50) was 7.46 and the “High Density Y-Min” value ([2]; MDA-MB-468, high density, % of cells at T = 0) was 35.5%. The “Low Density Y-Min” value ([2]; MDA-MB-468, low density, % of cells at T = 0) was 27.9%, the “High Density Y-Min” value ([3]; DU4475, high density, % of cells at T = 0) was −8.4% and the “Low Density Y-Min” value ([3]; DU4475, low density, % of cells at T = 0) was 1.2%. The pIC50 ([3]; DU4475, high seeding density, 72 h, read-out: High Density gIC50) was 7.69, the pIC50 ([3]; DU4475, low seeding density, 72 h, read-out: Low Density gIC50) was 8.44 and the pIC50 ([3]; DU4475, mean of low and high density, read-out: Mean gIC50) was 7.92. For the same molecule, the pIC50 ([4]; high seeding density, 72 h, read-out: High Density gIC50) was 7.60, the pIC50 ([4]; low seeding density, 72 h, read-out: Low Density gIC50) was 7.29 and the pIC50 ([4]; mean of low and high density, read-out: Mean gIC50) was 7.41. For the same molecule, the “High Density Y-Min” value ([4]; high density, % of cells at T = 0) was 98.9%, the “Low Density Y-Min” value ([4]; low density, % of cells at T = 0) was 518.6% and the pIC50 ([5]; 15 human breast cell lines, read-out: overall median gIC50) was 8.49. For the same molecule, the “tumor cell lines with gIC50>20 nM” value ([5]; number of lines / lines tested) was 3/15, the “tumor cell lines with gIC50s<3 nM” value ([5]; number of lines / lines tested) was 7/15 and the pIC50 ([6]; MDA-MB-231, high seeding density, 72 h, read-out: High Density gIC50) was 6.45. The pIC50 ([6]; MDA-MB-231, low seeding density, 72 h, read-out: Low Density gIC50) was 7.01, the pIC50 ([6]; MDA-MB-231, mean of low and high density, read-out: Mean gIC50) was 6.64 and the “High Density Y-Min” value ([6]; MDA-MB-231, high density, % of cells at T = 0) was 357.2%. For the same molecule, the “Low Density Y-Min” value ([6]; MDA-MB-231, low density, % of cells at T = 0) was 189.1%.
